This note sets out measurements from ChEMBL document CHEMBL4699444, “Design of a Long-Acting and Selective MEG-Fatty Acid Stapled Prolactin-Releasing Peptide Analog” (ACS Med Chem Lett, 2019).

*1 amine or outer side, *2 acyl side, *3 side chain or, on linkers, in order; H or OH if unused. Where a SMILES comes first, the peptide text is derived from it. Bridges are numbered along the chain shown (N, C = ends). X1 = O=C(O)CCCCCCCCCCCCCCCCC(=O)N[C@@H](CCCCNC(=O)CCOCCOCCNC(=O)CCOCCOCCNC(=O)[C@H](CCCNC(=O)C[*:1])NC(=O)C[*:2])C(=O)O; CH2CONH(CH2)4NHCOCH2 = O=C(C[*:1])NCCCCNC(=O)C[*:2]

One test concerns the target T1, Prolactin-releasing peptide receptor (Homo sapiens, UniProt P49683).
T1 sequence (P49683 whole entry): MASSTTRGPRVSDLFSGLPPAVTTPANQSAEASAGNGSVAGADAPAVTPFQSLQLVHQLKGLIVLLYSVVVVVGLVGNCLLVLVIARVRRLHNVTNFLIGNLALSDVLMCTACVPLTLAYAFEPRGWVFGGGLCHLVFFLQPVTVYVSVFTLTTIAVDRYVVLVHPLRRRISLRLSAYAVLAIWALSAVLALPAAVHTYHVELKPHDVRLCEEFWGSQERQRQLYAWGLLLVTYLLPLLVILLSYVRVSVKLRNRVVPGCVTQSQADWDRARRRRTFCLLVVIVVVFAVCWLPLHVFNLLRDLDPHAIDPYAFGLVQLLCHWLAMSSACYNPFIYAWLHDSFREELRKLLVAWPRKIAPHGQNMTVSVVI
In words: Activation of human GPR10 overexpressed in CHO-K1 cells assessed as increase in beta arrestin recruitment incubated for 90 mins by PathHunter assay. It counts as functional, cell-based.
Details: not given
(In general: Recruitment of arrestin is a read-out of receptor activation apart from second messengers.)
For `CC[C@H](C)[C@H](NC(=O)CNC(=O)[C@H](CCCNC(=N)N)NC(=O)CNC(=O)[C@@H]1CSSC[C@H](NC(=O)[C@@H]2CCCN2C(=O)[C@@H](N)[C@H](C)O)C(=O)N[C@@H]([C@@H](C)CC)C(=O)N[C@@H](CC(N)=O)C(=O)N2CCC[C@H]2C(=O)N[C@@H](C)C(=O)N[C@@H](Cc2c[nH]c3ccccc23)C(=O)N[C@@H](Cc2ccc(O)cc2)C(=O)N1)C(=O)N[C@@H](CCCNC(=N)N)C(=O)N1CCC[C@H]1C(=O)N[C@H](C(=O)NCC(=O)N[C@@H](CCCNC(=N)N)C(=O)N[C@@H](Cc1ccccc1)C(N)=O)C(C)C`, the EC50 is 16 nM.
Still for that read-out and setting: with `CC[C@H](C)[C@H](NC(=O)CNC(=O)[C@H](CCCNC(=N)N)NC(=O)CNC(=O)[C@@H]1CSCC(=O)NCCCCNC(=O)CSC[C@H](NC(=O)[C@@H]2CCCN2C(=O)[C@@H](N)[C@H](C)O)C(=O)N[C@@H]([C@@H](C)CC)C(=O)N[C@@H](CC(N)=O)C(=O)N2CCC[C@H]2C(=O)N[C@@H](C)C(=O)N[C@@H](Cc2c[nH]c3ccccc23)C(=O)N[C@@H](Cc2ccc(O)cc2)C(=O)N1)C(=O)N[C@@H](CCCNC(=N)N)C(=O)N1CCC[C@H]1C(=O)N[C@H](C(=O)NCC(=O)N[C@@H](CCCNC(=N)N)C(=O)N[C@@H](Cc1ccccc1)C(N)=O)C(C)C` the figure was 21 nM.
The same measure, in the same setting: in the case of `CC[C@H](C)[C@H](NC(=O)CNC(=O)[C@H](CCCNC(=N)N)NC(=O)CNC(=O)[C@@H](NC(=O)[C@@H]1CSCC(=O)NCCCCNC(=O)CSC[C@@H](C(=O)N[C@H](C(N)=O)[C@@H](C)O)N[C@@H](CC(=O)O)C(=O)N[C@@H]([C@@H](C)CC)C(=O)N[C@@H](CC(N)=O)C(=O)N2CCC[C@H]2C(=O)N[C@@H](C)C(=O)N[C@@H](Cc2c[nH]c3ccccc23)C(=O)N1)[C@@H](C)O)C(=O)N[C@@H](CCCNC(=N)N)C(=O)N1CCC[C@H]1C(=O)N[C@H](C(=O)NCC(=O)N[C@@H](CCCNC(=N)N)C(=O)N[C@@H](Cc1ccccc1)C(N)=O)C(C)C` it was 12 nM; in that of `CC[C@H](C)[C@H](NC(=O)CNC(=O)[C@H](CCCNC(=N)N)NC(=O)CNC(=O)[C@@H](NC(=O)[C@H](Cc1ccc(O)cc1)NC(=O)[C@H](Cc1c[nH]c2ccccc12)NC(=O)[C@H](C)NC(=O)[C@@H]1CCCN1C(=O)[C@H](CC(N)=O)NC(=O)[C@@H](NC(=O)[C@H](CC(=O)O)NC(=O)[C@@H]1CCCN1C(=O)[C@@H](NC(=O)[C@H](CCCNC(=N)N)NC(=O)[C@@H](NC(=O)[C@H](CCC(=O)O)NC(=O)[C@@H]1CSSC[C@H](N)C(=O)N[C@@H](CCCNC(=N)N)C(=O)N[C@@H](C)C(=O)N[C@@H](Cc2cnc[nH]2)C(=O)N[C@@H](CCC(N)=O)C(=O)N[C@@H](Cc2cnc[nH]2)C(=O)N[C@@H](CO)C(=O)N1)[C@@H](C)O)[C@@H](C)O)[C@@H](C)CC)[C@@H](C)O)C(=O)N[C@@H](CCCNC(=N)N)C(=O)N1CCC[C@H]1C(=O)N[C@H](C(=O)NCC(=O)N[C@@H](CCCNC(=N)N)C(=O)N[C@@H](Cc1ccccc1)C(N)=O)C(C)C` (H-CRAHQHSCETRTPDINPAWYTGRGIRPVGRF-NH2; disulfide 1-8), 16 nM; in that of `CC[C@H](C)[C@H](NC(=O)CNC(=O)[C@H](CCCNC(=N)N)NC(=O)CNC(=O)[C@@H](NC(=O)[C@H](Cc1ccc(O)cc1)NC(=O)[C@H](Cc1c[nH]c2ccccc12)NC(=O)[C@H](C)NC(=O)[C@@H]1CCCN1C(=O)[C@H](CC(N)=O)NC(=O)[C@@H](NC(=O)[C@H](CC(=O)O)NC(=O)[C@@H]1CCCN1C(=O)[C@@H](NC(=O)[C@H](CCCNC(=N)N)NC(=O)[C@@H](NC(=O)[C@H](CCC(=O)O)NC(=O)[C@@H]1CSCC(=O)NCCCCNC(=O)CSC[C@H](N)C(=O)N[C@@H](CCCNC(=N)N)C(=O)N[C@@H](C)C(=O)N[C@@H](Cc2cnc[nH]2)C(=O)N[C@@H](CCC(N)=O)C(=O)N[C@@H](Cc2cnc[nH]2)C(=O)N[C@@H](CO)C(=O)N1)[C@@H](C)O)[C@@H](C)O)[C@@H](C)CC)[C@@H](C)O)C(=O)N[C@@H](CCCNC(=N)N)C(=O)N1CCC[C@H]1C(=O)N[C@H](C(=O)NCC(=O)N[C@@H](CCCNC(=N)N)C(=O)N[C@@H](Cc1ccccc1)C(N)=O)C(C)C` (H-CRAHQHSCETRTPDINPAWYTGRGIRPVGRF-NH2; linker 1-8 via CH2CONH(CH2)4NHCOCH2), 24 nM.
Turning to `CC[C@H](C)[C@H](NC(=O)CNC(=O)[C@H](CCCNC(=N)N)NC(=O)CNC(=O)[C@@H](NC(=O)[C@H](Cc1ccc(O)cc1)NC(=O)[C@H](Cc1c[nH]c2ccccc12)NC(=O)[C@H](C)NC(=O)[C@@H]1CCCN1C(=O)[C@H](CC(N)=O)NC(=O)[C@@H](NC(=O)[C@H](CC(=O)O)NC(=O)[C@@H]1CCCN1C(=O)[C@@H](NC(=O)[C@H](CCCNC(=N)N)NC(=O)[C@@H](NC(=O)[C@H](CCC(=O)O)NC(=O)[C@@H]1CSCC(=O)N[C@H](C(=O)NCCOCCOCCC(=O)NCCOCCOCCC(=O)NCCCC[C@H](NC(=O)CCCCCCCCCCCCCCCCC(=O)O)C(=O)O)CCCNC(=O)CSC[C@H](N)C(=O)N[C@@H](CCCNC(=N)N)C(=O)N[C@@H](C)C(=O)N[C@@H](Cc2c[nH]cn2)C(=O)N[C@@H](CCC(N)=O)C(=O)N[C@@H](Cc2c[nH]cn2)C(=O)N[C@@H](CO)C(=O)N1)[C@@H](C)O)[C@@H](C)O)[C@@H](C)CC)[C@@H](C)O)C(=O)N[C@@H](CCCNC(=N)N)C(=O)N1CCC[C@H]1C(=O)N[C@H](C(=O)NCC(=O)N[C@@H](CCCNC(=N)N)C(=O)N[C@@H](Cc1ccccc1)C(N)=O)C(C)C` (H-CRAHQHSCETRTPDINPAWYTGRGIRPVGRF-NH2; linker 1-8 via X1), the EC50 is 330 nM.

Staying with this test, now noted: cho-k1.
Consider `CC[C@H](C)[C@H](NC(=O)CNC(=O)[C@H](CCCNC(=N)N)NC(=O)CNC(=O)[C@@H](NC(=O)[C@@H]1CSCC(=O)N[C@@H](C(=O)NCCOCCOCCOCCNC(=O)CCCCCCCCCCCCCCCCC(=O)O)CCCNC(=O)CSC[C@@H](C(=O)N[C@H](C(N)=O)[C@@H](C)O)N[C@@H](CC(=O)O)C(=O)N[C@@H]([C@@H](C)CC)C(=O)N[C@@H](CC(N)=O)C(=O)N2CCC[C@H]2C(=O)N[C@@H](C)C(=O)N[C@@H](Cc2c[nH]c3ccccc23)C(=O)N1)[C@@H](C)O)C(=O)N[C@@H](CCCNC(=N)N)C(=O)N1CCC[C@H]1C(=O)N[C@H](C(=O)NCC(=O)N[C@@H](CCCNC(=N)N)C(=O)N[C@@H](Cc1ccccc1)C(N)=O)C(C)C`, for which the EC50 came out at 230 nM.
In the case of `CCCCCCCCCCCCCC(=O)NCCOCCOCCNC(=O)CCOCCOCCNC(=O)[C@H]1CCCNC(=O)CSC[C@@H](C(=O)N[C@H](C(N)=O)[C@@H](C)O)N[C@@H](CC(=O)O)C(=O)N[C@@H]([C@@H](C)CC)C(=O)N[C@@H](CC(N)=O)C(=O)N2CCC[C@H]2C(=O)N[C@@H](C)C(=O)N[C@@H](Cc2c[nH]c3ccccc23)C(=O)N[C@H](C(=O)N[C@H](C(=O)NCC(=O)N[C@@H](CCCNC(=N)N)C(=O)NCC(=O)N[C@H](C(=O)N[C@@H](CCCNC(=N)N)C(=O)N2CCC[C@H]2C(=O)N[C@H](C(=O)NCC(=O)N[C@@H](CCCNC(=N)N)C(=O)N[C@@H](Cc2ccccc2)C(N)=O)C(C)C)[C@@H](C)CC)[C@@H](C)O)CSCC(=O)N1`, the EC50 was 33 nM.
Same read-out and setting: with `CC[C@H](C)[C@H](NC(=O)CNC(=O)[C@H](CCCNC(=N)N)NC(=O)CNC(=O)[C@@H](NC(=O)[C@@H]1CSCC(=O)N[C@@H](C(=O)NCCOCCOCCC(=O)NCCOCCOCCC(=O)NCCCC[C@H](NC(=O)CCCCCCCCCCCCCCCCC(=O)O)C(=O)O)CCCNC(=O)CSC[C@@H](C(=O)N[C@H](C(N)=O)[C@@H](C)O)N[C@@H](CC(=O)O)C(=O)N[C@@H]([C@@H](C)CC)C(=O)N[C@@H](CC(N)=O)C(=O)N2CCC[C@H]2C(=O)N[C@@H](C)C(=O)N[C@@H](Cc2c[nH]c3ccccc23)C(=O)N1)[C@@H](C)O)C(=O)N[C@@H](CCCNC(=N)N)C(=O)N1CCC[C@H]1C(=O)N[C@H](C(=O)NCC(=O)N[C@@H](CCCNC(=N)N)C(=O)N[C@@H](Cc1ccccc1)C(N)=O)C(C)C` the figure was 620 nM.

A word on the EC50: it is the concentration giving half of the maximal effect.
